Experiments:
[1] = system: Glomerella lagenarium (Colletotrichum lagenarium); assay: Fungicidal activity against Glomerella lagenarium (Colletotrichum lagenarium), liquid culture, cucumber, preventative (anthracnose); assay type: cell-based; settings: Colletotrichum orbiculare, liquid culture (PDB), growth inhibition measured photometrically 3-4 days after application, compared to untreated control
Protocol: Mycelia fragments or conidia suspensions of a fungus, prepared either freshly from liquid cultures of the fungus or from cryogenic storage, are directly mixed into nutrient broth. DMSO solutions of the test compound (max. 10 mg/ml) is diluted with 0.025% Tween20 by a factor of 50 and 10 μl of this solution is pipetted into a microtiter plate (96-well format). The nutrient broth containing the fungal spores/mycelia fragments is then added to give an end concentration of the tested compound. The test plates are incubated in the dark at 24° C. and 96% relative humidity. The inhibition of fungal growth is determined photometrically after 2 to 7 days, depending on the pathosystem, and percent antifungal activity relative to the untreated check is calculated. Conidia of the fungus from cryogenic storage are directly mixed into nutrient broth (PDB potato dextrose broth). After placing a (DMSO) solution of test compound into a microtiter plate (96-well format), the nutrient broth containing the fungal spores is added. The test plates are incubated at 24° C. and the inhibition of growth is measured photometrically 3-4 days after application.

Phakopsora pachyrhizi = assay: Fungicidal activity against Phakopsora pachyrhizi, soybean, leaf disc preventative (Asian soybean rust); assay type: in vivo; settings: foliar, 288 h, 12-14 days after application, compared to untreated control
Protocol: Leaf disks or leaf segments of various plant species are cut from plants grown in a greenhouse. The cut leaf disks or segments are placed in multiwell plates (24-well format) onto water agar. The leaf disks are sprayed with a test solution before (preventative) or after (curative) inoculation. Compounds to be tested are prepared as DMSO solutions (max. 10 mg/ml) which are diluted to the appropriate concentration with 0.025% Tween20 just before spraying. The inoculated leaf disks or segments are incubated under defined conditions (temperature, relative humidity, light, etc.) according to the respective test system. A single evaluation of disease level is carried out 3 to 14 days after inoculation, depending on the pathosystem. Percent disease control relative to the untreated check leaf disks or segments is then calculated. Soybean leaf disks are placed on water agar in multiwell plates (24-well format) and sprayed with the formulated test compound diluted in water. One day after application leaf discs are inoculated by spraying a spore suspension on the lower leaf surface. After an incubation period in a climate cabinet of 24-36 hours in darkness at 20° C. and 75% rh leaf disc are kept at 20° C. with 12 h light/day and 75% rh. The activity of a compound is assessed as percent disease control compared to untreated when an appropriate level of disease damage appears in untreated check leaf disks (12-14 days after application).

[2] = system: Puccinia recondita f. sp. tritici; assay: Fungicidal activity against Puccinia recondita f. sp. tritici, wheat, leaf disc curative (brown rust); assay type: in vivo; settings: foliar, 144 h, wheat leaf segments, curative (applied 1 day after inoculation), 6-8 days after application, compared to untreated control
Protocol: (§1) Leaf disks or leaf segments of various plant species are cut from plants grown in a greenhouse. The cut leaf disks or segments are placed in multiwell plates (24-well format) onto water agar. The leaf disks are sprayed with a test solution before (preventative) or after (curative) inoculation. Compounds to be tested are prepared as DMSO solutions (max. 10 mg/ml) which are diluted to the appropriate concentration with 0.025% Tween20 just before spraying. The inoculated leaf disks or segments are incubated under defined conditions (temperature, relative humidity, light, etc.) according to the respective test system. A single evaluation of disease level is carried out 3 to 14 days after inoculation, depending on the pathosystem. Percent disease control relative to the untreated check leaf disks or segments is then calculated. Wheat leaf segments cv. Kanzler are placed on agar in multiwell plates (24-well format). The leaf segments are inoculated with a spore suspension of the fungus. Plates are stored in darkness at 19° C. and 75% rh. The formulated test compound diluted in water is applied 1 day after inoculation. The leaf segments are incubated at 19° C. and 75% rh under a light regime of 12 h light/12 h darkness in a climate cabinet and the activity of a compound is assessed as percent disease control compared to untreated when an appropriate level of disease damage appears in untreated check leaf segments (6-8 days after application).

[3] = system: Puccinia recondita f. sp. tritici; assay: Fungicidal activity against Puccinia recondita f. sp. tritici, wheat, leaf disc preventative (brown rust); assay type: in vivo; settings: foliar, wheat leaf segments, preventative (inoculated 1 day after application), 7-9 days after application, compared to untreated control
Protocol: as §1, with “plates (24-well format) and sprayed with the formulated test compound diluted in water. The leaf” for “plates (24-well format). The leaf”, “of the fungus 1 day” for “of the fungus. Plates are stored in darkness at 19° C. and 75% rh. The formulated test compound diluted in water is applied 1 day”, “day after application. The inoculated” for “day after inoculation. The leaf”, “application. The inoculated leaf segments” for “inoculation. The leaf segments”, “leaf segments (7-9 days after” for “leaf segments (6-8 days after”

CC1CCCN(Cc2ccc(-c3noc(C(F)(F)F)n3)cc2)C1=O (stereo not drawn) [Compound A-10, 3-methyl-1-[[4-[5-(trifluoromethyl)-1,2,4-oxadiazol-3-yl]phenyl]methyl]piperidin-2-one]
≥ 80%: inhibition of growth at 20 ppm [1] | pest or weed control at 200 ppm (Phakopsora pachyrhizi) | pest or weed control at 200 ppm [2] | pest or weed control at 200 ppm [3]

CC1(C)CC(=O)N(Cc2ccc(-c3noc(C(F)(F)F)n3)cc2)C(=O)C1 [Compound A-11, 4,4-dimethyl-1-[[4-[5-(trifluoromethyl)-1,2,4-oxadiazol-3-yl]phenyl]methyl]piperidine-2,6-dione]
≥ 80%: inhibition of growth at 20 ppm [1] | pest or weed control at 200 ppm (Phakopsora pachyrhizi) | pest or weed control at 200 ppm [2] | pest or weed control at 200 ppm [3]

O=C1CCCCN1Cc1ccc(-c2noc(C(F)(F)F)n2)cn1 [Compound A-12, 1-[[5-[5-(trifluoromethyl)-1,2,4-oxadiazol-3-yl]-2-pyridyl]methyl]piperidin-2-one]
≥ 80%: inhibition of growth at 20 ppm [1] | pest or weed control at 200 ppm (Phakopsora pachyrhizi) | pest or weed control at 200 ppm [2] | pest or weed control at 200 ppm [3]

CC1CCC(=O)N1Cc1ccc(-c2noc(C(F)(F)F)n2)cc1 (stereo not drawn) [Compound A-13, 5-methyl-1-[[4-[5-(trifluoromethyl)-1,2,4-oxadiazol-3-yl]phenyl]methyl]pyrrolidin-2-one]
≥ 80%: inhibition of growth at 20 ppm [1] | pest or weed control at 200 ppm (Phakopsora pachyrhizi) | pest or weed control at 200 ppm [2] | pest or weed control at 200 ppm [3]

CC1CCCC(=O)N1Cc1ccc(-c2noc(C(F)(F)F)n2)cc1 (stereo not drawn) [Compound A-14, 6-methyl-1-[[4-[5-(trifluoromethyl)-1,2,4-oxadiazol-3-yl]phenyl]methyl]piperidin-2-one]
≥ 80%: inhibition of growth at 20 ppm [1] | pest or weed control at 200 ppm (Phakopsora pachyrhizi) | pest or weed control at 200 ppm [2] | pest or weed control at 200 ppm [3]

O=C1C2CCC(CC2)N1Cc1ccc(-c2noc(C(F)(F)F)n2)cc1 [Compound A-15, 3-[[4-[5-(trifluoromethyl)-1,2,4-oxadiazol-3-yl]phenyl]methyl]-3-azabicyclo[2.2.2]octan-2-one]
≥ 80%: inhibition of growth at 20 ppm [1] | pest or weed control at 200 ppm (Phakopsora pachyrhizi) | pest or weed control at 200 ppm [2] | pest or weed control at 200 ppm [3]

CC1(C)CCCN(Cc2ccc(-c3noc(C(F)(F)F)n3)cc2)C1=O [Compound A-16, 3,3-dimethyl-1-[[4-[5-(trifluoromethyl)-1,2,4-oxadiazol-3-yl]phenyl]methyl]piperidin-2-one]
≥ 80%: inhibition of growth at 20 ppm [1] | pest or weed control at 200 ppm (Phakopsora pachyrhizi) | pest or weed control at 200 ppm [2] | pest or weed control at 200 ppm [3]

CC1CCN(Cc2ccc(-c3noc(C(F)(F)F)n3)cc2)C(=O)C1 (stereo not drawn) [Compound A-17, 4-methyl-1-[[4-[5-(trifluoromethyl)-1,2,4-oxadiazol-3-yl]phenyl]methyl]piperidin-2-one]
≥ 80%: inhibition of growth at 20 ppm [1] | pest or weed control at 200 ppm (Phakopsora pachyrhizi) | pest or weed control at 200 ppm [2] | pest or weed control at 200 ppm [3]

CC1CCC(=O)N(Cc2ccc(-c3noc(C(F)(F)F)n3)cc2)C1 (stereo not drawn) [Compound A-18, 5-methyl-1-[[4-[5-(trifluoromethyl)-1,2,4-oxadiazol-3-yl]phenyl]methyl]piperidin-2-one]
≥ 80%: inhibition of growth at 20 ppm [1] | pest or weed control at 200 ppm (Phakopsora pachyrhizi) | pest or weed control at 200 ppm [2] | pest or weed control at 200 ppm [3]

COC1CCCN(Cc2ccc(-c3noc(C(F)(F)F)n3)cc2)C1=O (stereo not drawn) [Compound A-19, 3-methoxy-1-[[4-[5-(trifluoromethyl)-1,2,4-oxadiazol-3-yl]phenyl]methyl]piperidin-2-one]
≥ 80%: inhibition of growth at 20 ppm [1] | pest or weed control at 200 ppm (Phakopsora pachyrhizi) | pest or weed control at 200 ppm [2] | pest or weed control at 200 ppm [3]

O=C1CC(C(F)(F)F)N1Cc1ccc(-c2noc(C(F)(F)F)n2)cc1 (stereo not drawn) [Compound A-20, 4-(trifluoromethyl)-1-[[4-[5-(trifluoromethyl)-1,2,4-oxadiazol-3-yl]phenyl]methyl]azetidin-2-one]
≥ 80%: inhibition of growth at 20 ppm [1] | pest or weed control at 200 ppm (Phakopsora pachyrhizi) | pest or weed control at 200 ppm [2] | pest or weed control at 200 ppm [3]

O=C1CCC(C(F)F)N1Cc1ccc(-c2noc(C(F)(F)F)n2)cc1 (stereo not drawn) [Compound A-21, 5-(difluoromethyl)-1-[[4-[5-(trifluoromethyl)-1,2,4-oxadiazol-3-yl]phenyl]methyl]pyrrolidin-2-one]
≥ 80%: inhibition of growth at 20 ppm [1] | pest or weed control at 200 ppm (Phakopsora pachyrhizi) | pest or weed control at 200 ppm [2] | pest or weed control at 200 ppm [3]

O=C1CCN1Cc1ccc(-c2noc(C(F)(F)F)n2)cc1 [Compound A-23, 1-[[4-[5-(trifluoromethyl)-1,2,4-oxadiazol-3-yl]phenyl]methyl]azetidin-2-one]
≥ 80%: inhibition of growth at 20 ppm [1] | pest or weed control at 200 ppm (Phakopsora pachyrhizi) | pest or weed control at 200 ppm [2] | pest or weed control at 200 ppm [3]

O=C1C2CCC(C2)N1Cc1ccc(-c2noc(C(F)(F)F)n2)cc1 (stereo not drawn) [Compound A-24, 3-[[4-[5-(trifluoromethyl)-1,2,4-oxadiazol-3-yl]phenyl]methyl]-3-azabicyclo[2.2.1]heptan-2-one]
≥ 80%: inhibition of growth at 20 ppm [1] | pest or weed control at 200 ppm (Phakopsora pachyrhizi) | pest or weed control at 200 ppm [2] | pest or weed control at 200 ppm [3]

O=C1CCCC2(CC2)N1Cc1ccc(-c2noc(C(F)(F)F)n2)cc1 [Compound A-25, 4-[[4-[5-(trifluoromethyl)-1,2,4-oxadiazol-3-yl]phenyl]methyl]-4-azaspiro[2.5]octan-5-one]
≥ 80%: inhibition of growth at 20 ppm [1] | pest or weed control at 200 ppm (Phakopsora pachyrhizi) | pest or weed control at 200 ppm [2] | pest or weed control at 200 ppm [3]

O=C1CCC2(CC2)N1Cc1ccc(-c2noc(C(F)(F)F)n2)cc1 [Compound A-27, 4-[[4-[5-(trifluoromethyl)-1,2,4-oxadiazol-3-yl]phenyl]methyl]-4-aza-spiro[2.4]heptan-5-one]
≥ 80%: inhibition of growth at 20 ppm [1] | pest or weed control at 200 ppm (Phakopsora pachyrhizi) | pest or weed control at 200 ppm [2] | pest or weed control at 200 ppm [3]

O=C1CCCCN1Cc1ccc(-c2noc(C(F)(F)F)n2)cc1F [Compound A-29, 1-[[2-fluoro-4-[5-(trifluoromethyl)-1,2,4-oxadiazol-3-yl]phenyl]methyl]piperidin-2-one]
≥ 80%: inhibition of growth at 20 ppm [1] | pest or weed control at 200 ppm (Phakopsora pachyrhizi) | pest or weed control at 200 ppm [2] | pest or weed control at 200 ppm [3]

CCOC(=O)N1CCN(Cc2ccc(-c3noc(C(F)(F)F)n3)cc2)C(=O)C1 [Compound A-32, ethyl 3-oxo-4-[[4-[5-(trifluoromethyl)-1,2,4-oxadiazol-3-yl]phenyl]methyl]piperazine-1-carboxylate]
≥ 80%: inhibition of growth at 20 ppm [1] | pest or weed control at 200 ppm (Phakopsora pachyrhizi) | pest or weed control at 200 ppm [2] | pest or weed control at 200 ppm [3]
